Data from patent US20250262336A1, “[177LU] LUTETIUM-PSMA I&T COMPOSITION AND DOSIMETRY, KIT, METHOD OF MAKING, AND METHOD OF USING THEREOF” (Curium US LLC, priority 2023, published 2025).
Where “and” joins values, the source holds several entries; their conditions need not be identical. Identical values can stand only once.

Assays:
[1] = Cycle 3 plasma PK modelling; format: in vivo, human; settings: n = 15
Procedure: (§1) Whole blood samples were collected as detailed in the protocol Schedule of Events i.e. pre-injection, and then at 1 h, 4 h, 24 h, 48 h, and 168 h post-injection. The samples were first centrifuged to separate plasma, and the radioactivity in the plasma was then measured using a gamma counter. Plasma concentrations were subsequently fitted with a bi-exponential function to derive outcome parameters such as the half-life and clearance rate of the radiopharmaceutical in the plasma.
(§2) Blood samples were obtained for 15 out of 16 patients at cycle 3. Patients 12-004 had blood taken only at the 24 h timepoint and, therefore, was not included in the plasma PK analysis. Consistent with Cycle 1, the time-course of plasma concentrations was similar among the patients. The ranges of PK parameters obtained at cycle 3 were similar to those from Cycle 1 data (Tables 9A and 9B).
as §2, with “(Table 29). See Table 29) Cycle 3 PK plasma modeling results (n15)” for “(Tables 9A and 9B).”

[2] = Cycle 1 plasma PK (gamma counting of plasma, bi-exponential fit); format: in vivo, human
Procedure: Additionally, for PK assessment, whole blood samples were collected at six timepoints (Pre-Infusion, 1 h, 4 h, 24 h, 48 h, and 168 h) and processed to extract plasma. All plasma samples were gamma counted locally for analysis of pharmacokinetics.
PK plasma samples were collected at pre-Infusion, 1 h, 4 h, 24 h, 48 h, and 168 h, and counted for radioactivity. Blood samples were first centrifuged to extract plasma, and then the radioactivity in plasma was counted in a gamma counter.
as §1
For each sample, collect sufficient sample volume for triplicate aliquots to meet the measurement requirements of your institution's gamma counter and perform measurements according to standard procedure. Blood will be processed and plasma will be measured on the gamma counter, as described in the following subsections.
All blood samples drawn must be aliquoted 3 times, labeled appropriately, and stored per standard procedure for later measurement of plasma in the qualified gamma counter. All samples will be counted as a group for each patient for each Cycle, no later than 24 hours following the final sample collection.
Collect 5 ml of blood in a BD PPT system (Plasma Protein Preservation Tube-draw volume of 5 mL).
Centrifuge at 18-25° C. at 1100 g for 10 min. The resulting supernatant is designated plasma.
Gamma Counter Measurements: All patient samples must be counted for 60 seconds, with a counting energy window of 102-229 keV.

[3] = Cycle 1, plasma, patient 42-030 excluded

- AUC Total, Mean [1]: 25.58 fIA/L × min
- AUC Total, max [1]: 39.62 fIA/L × min
- AUC Total, median [1]: 24.55 fIA/L × min
- AUC Total, min [1]: 13.86 fIA/L × min
- Peak Concentration Value, Mean [1]: 0.05 fIA/L
- Peak Concentration Value, max [1]: 0.07 fIA/L
- Peak Concentration Value, median [1]: 0.04 fIA/L
- Peak Concentration Value, min [1]: 0.03 fIA/L
- Time of Peak Concentration [1]: 55.00 min
- Time of Peak Concentration, Mean [1]: 60.67 min
- Time of Peak Concentration, max [1]: 68.00 min
- Time of Peak Concentration, median [1]: 60.00 min
- Vc, Mean [1]: 16.40 L
- Vc, max [1]: 24.53 L
- Vc, median [1]: 16.42 L
- Vc, min [1]: 10.66 L
- AUC Total, Mean [2, 3]: 22.77 fIA/L × min
- AUC Total, max [2, 3]: 37.86 fIA/L × min
- AUC Total, median [2, 3]: 20.84 fIA/L × min
- AUC Total, min [2, 3]: 3.07 fIA/L × min
- Peak Concentration Value, Mean [2, 3]: 0.04 fIA/L
- Peak Concentration Value, max [2, 3]: 0.07 fIA/L
- Peak Concentration Value, median [2, 3]: 0.04 fIA/L
- Peak Concentration Value, min [2, 3]: 0.01 fIA/L
- Time of Peak Concentration [2, 3]: 33.00 min
- Time of Peak Concentration, Mean [2, 3]: 59.19 min
- Time of Peak Concentration, max [2, 3]: 127.00 min
- Time of Peak Concentration, median [2, 3]: 59.00 min
- Vc, Mean [2, 3]: 20.29 L
- Vc, max [2, 3]: 111.78 L
- Vc, median [2, 3]: 16.33 L
- Vc, min [2, 3]: 9.92 L
- time to peak, patient 80-007 ([2]; cycle 1, first post-administration sample acquired with a delay): 127 min
Compound: O=C(O)CC[C@H](NC(=O)N[C@@H](CCCCNC(=O)CCCCCCC(=O)NCCCC[C@@H](NC(=O)[C@@H](Cc1ccccc1)NC(=O)[C@@H](Cc1ccc(O)c(I)c1)NC(=O)CC[C@H](C(=O)O)N1CCN(CC(=O)O)CCN(CC(=O)O)CCN(CC(=O)O)CC1)C(=O)O)C(=O)O)C(=O)O [^177Lu-PSMA-I&T, (3S,7 S,26R,29R,32R,37R)-29-benzyl-32-(4-hydroxy-3-iodobenzyl)-5,13,20,28,31,34-hexaoxo-37-(4,7,10-tris(carboxymethyl)-1,4,7,10-tetraazacyclododecan-1-yl)-4,6,12,21,27,30,33-heptaazaheptatriacontane-1,3,7,26,37-pentacarboxylic acid; lutetium-177 (III), metal not drawn]
- Time of Peak Concentration ([2]; Cycle 1, plasma, individual patients, time of first sample): 53.00 min and 60.00 min (6×) and 51.00 min (2×) and 58.00 min and 61.00 min (2×) and 50.00 min and 63.00 min and 57.00 min and 55.00 min and 52.00 min (2×) and 68.00 min and 71.00 min and 65.00 min and 33.00 min and 40.00 min and 69.00 min and 56.00 min and 127.00 min and 47.00 min
- Peak Concentration Value ([2]; Cycle 1, plasma, individual patients, value at first sample): 0.04 fIA/L (10×) and 0.03 fIA/L (4×) and 0.05 fIA/L (7×) and 0.01 fIA/L and 0.06 fIA/L (2×) and 0.02 fIA/L and 0.07 fIA/L (2×)
